Reference: ChEMBL document CHEMBL1201862, “PubChem BioAssay data set” (2004)
Structures can show the parent of a compound that is named as a salt.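 Dose response: 5 concentrations. Exposure: 48 h. Format: 96-well plates. Endpoint: linear interpolation; highest concentration if not reached. GI50 is the concentration that inhibits growth by half.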 Activity calls are given as the source filed them. No stated cut-off is given here; in the data, active = GI50 up to about 1.1 µM and inactive = higher.

Tests used:
Experiment in all cases: inhibition of tumour cell growth, NCI panel, 48 h
786-0 = test system: 786-0
A498 = test system: A498
A549 = test system: A549
ACHN = test system: ACHN
BT-549 = test system: BT-549
CAKI-1 = test system: CAKI-1
CCRF-CEM = test system: CCRF-CEM
COLO 205 = test system: COLO 205
DU-145 = test system: DU-145
EKVX = test system: EKVX
HCC 2998 = test system: HCC 2998
HCT-116 = test system: HCT-116
HCT-15 = test system: HCT-15
HL-60 = test system: HL-60
HOP-62 = test system: HOP-62
HOP-92 = test system: HOP-92
HT-29 = test system: HT-29
Hs-578T = test system: Hs-578T
IGROV-1 = test system: IGROV-1
KM12 = test system: KM12
LOX IMVI = test system: LOX IMVI
M14 = test system: M14
MCF7 = test system: MCF7
MDA-MB-231 = test system: MDA-MB-231
MDA-MB-435 = test system: MDA-MB-435
MDA-N = test system: MDA-N
MOLT-4 = test system: MOLT-4
Malme-3M = test system: Malme-3M
NCI-H226 = test system: NCI-H226
NCI-H23 = test system: NCI-H23
NCI-H460 = test system: NCI-H460
NCI-H522 = test system: NCI-H522
NCI/ADR-RES = test system: NCI/ADR-RES
OVCAR-3 = test system: OVCAR-3
OVCAR-4 = test system: OVCAR-4
OVCAR-5 = test system: OVCAR-5
OVCAR-8 = test system: OVCAR-8
PC-3 = test system: PC-3
RPMI-8226 = test system: RPMI-8226
RXF 393 = test system: RXF 393
SF-268 = test system: SF-268
SF-295 = test system: SF-295
SF-539 = test system: SF-539
SK-MEL-28 = test system: SK-MEL-28
SK-MEL-2 = test system: SK-MEL-2
SK-MEL-5 = test system: SK-MEL-5
SK-OV-3 = test system: SK-OV-3
SN12C = test system: SN12C
SNB-19 = test system: SNB-19
SR = test system: SR
SW-620 = test system: SW-620
T47D = test system: T47D
TK-10 = test system: TK-10
U-251 = test system: U-251
UACC-257 = test system: UACC-257
UACC-62 = test system: UACC-62
UO-31 = test system: UO-31
K562 = test system: K562
SNB-75 = test system: SNB-75

## COc1ccc(/C=C2/C(=O)C(c3ccccc3)N(c3ccccc3)C2=O)cc1OC (centres undefined)
786-0
  GI50: > 10 µM (inactive)
A498
  GI50: 1.41 µM (inactive)
A549
  GI50: > 10 µM (inactive)
ACHN
  GI50: > 10 µM (inactive)
BT-549
  GI50: > 10 µM (inactive)
CAKI-1
  GI50: > 10 µM (inactive)
CCRF-CEM
  GI50: > 10 µM (inactive)
COLO 205
  GI50: > 10 µM (inactive)
DU-145
  GI50: > 10 µM (inactive)
EKVX
  GI50: > 10 µM (inactive)
HCC 2998
  GI50: > 10 µM (inactive)
HCT-116
  GI50: > 10 µM (inactive)
HCT-15
  GI50: > 10 µM
HL-60
  GI50: > 10 µM (inactive)
HOP-62
  GI50: > 10 µM (inactive)
HOP-92
  GI50: > 10 µM (inactive)
HT-29
  GI50: > 10 µM (inactive)
Hs-578T
  GI50: > 10 µM (inactive)
IGROV-1
  GI50: 0.975 µM (active)
KM12
  GI50: > 10 µM (inactive)
LOX IMVI
  GI50: > 10 µM (inactive)
M14
  GI50: > 10 µM (inactive)
MCF7
  GI50: > 10 µM (inactive)
MDA-MB-231
  GI50: > 10 µM (inactive)
MDA-MB-435
  GI50: > 10 µM (inactive)
MDA-N
  GI50: > 10 µM (inactive)
MOLT-4
  GI50: > 10 µM (inactive)
Malme-3M
  GI50: 1.42 µM (inactive)
NCI-H226
  GI50: > 10 µM (inactive)
NCI-H23
  GI50: > 10 µM (inactive)
NCI-H460
  GI50: > 10 µM (inactive)
NCI-H522
  GI50: > 10 µM (inactive)
NCI/ADR-RES
  GI50: > 10 µM (inactive)
OVCAR-3
  GI50: > 10 µM (inactive)
OVCAR-4
  GI50: > 10 µM (inactive)
OVCAR-5
  GI50: > 10 µM (inactive)
OVCAR-8
  GI50: > 10 µM (inactive)
PC-3
  GI50: > 10 µM (inactive)
RPMI-8226
  GI50: > 10 µM (inactive)
RXF 393
  GI50: > 10 µM (inactive)
SF-268
  GI50: > 10 µM (inactive)
SF-295
  GI50: > 10 µM (inactive)
SF-539
  GI50: > 10 µM (inactive)
SK-MEL-28
  GI50: > 10 µM (inactive)
SK-MEL-2
  GI50: > 10 µM (inactive)
SK-MEL-5
  GI50: 0.168 µM (active)
SK-OV-3
  GI50: > 10 µM (inactive)
SN12C
  GI50: > 10 µM (inactive)
SNB-19
  GI50: > 10 µM (inactive)
SR
  GI50: > 10 µM (inactive)
SW-620
  GI50: > 10 µM (inactive)
T47D
  GI50: > 10 µM (inactive)
TK-10
  GI50: > 10 µM (inactive)
U-251
  GI50: > 10 µM (inactive)
UACC-257
  GI50: > 10 µM (inactive)
UACC-62
  GI50: > 10 µM (inactive)
UO-31
  GI50: > 10 µM (inactive)

## COc1ccc(Cc2nccc3cc(OC)c(OC)cc23)cc1OC [PAPAVERINE HYDROCHLORIDE]
786-0
  GI50: > 100 µM (inactive)
A498
  GI50: 77.3 µM (inactive)
A549
  GI50: > 100 µM (inactive)
ACHN
  GI50: 63 µM (inactive)
BT-549
  GI50: 53.8 µM (inactive)
CAKI-1
  GI50: 47.3 µM (inactive)
CCRF-CEM
  GI50: > 100 µM (inactive)
COLO 205
  GI50: > 100 µM (inactive)
DU-145
  GI50: > 100 µM (inactive)
EKVX
  GI50: 45.5 µM (inactive)
HCC 2998
  GI50: 92.9 µM (inactive)
HCT-116
  GI50: 39.3 µM (inactive)
HCT-15
  GI50: 87.3 µM
HL-60
  GI50: 45 µM (inactive)
HOP-62
  GI50: 43.8 µM (inactive)
HOP-92
  GI50: 36.5 µM (inactive)
HT-29
  GI50: 41.3 µM (inactive)
Hs-578T
  GI50: > 100 µM (inactive)
IGROV-1
  GI50: > 100 µM (inactive)
K562
  GI50: 37.3 µM (inactive)
KM12
  GI50: > 100 µM (inactive)
LOX IMVI
  GI50: 60.8 µM (inactive)
M14
  GI50: > 100 µM (inactive)
MCF7
  GI50: > 100 µM (inactive)
MDA-MB-231
  GI50: 47.2 µM (inactive)
MDA-MB-435
  GI50: > 100 µM (inactive)
MDA-N
  GI50: 94 µM (inactive)
MOLT-4
  GI50: 47.8 µM (inactive)
NCI-H226
  GI50: 43.5 µM (inactive)
NCI-H23
  GI50: 19.8 µM (inactive)
NCI-H460
  GI50: 19 µM (inactive)
NCI-H522
  GI50: > 100 µM (inactive)
NCI/ADR-RES
  GI50: 26.7 µM (inactive)
OVCAR-3
  GI50: > 100 µM (inactive)
OVCAR-4
  GI50: > 100 µM (inactive)
OVCAR-5
  GI50: > 100 µM (inactive)
OVCAR-8
  GI50: 64.9 µM (inactive)
PC-3
  GI50: 74.3 µM (inactive)
RPMI-8226
  GI50: 36.7 µM (inactive)
SF-268
  GI50: > 100 µM (inactive)
SF-295
  GI50: 84.9 µM (inactive)
SF-539
  GI50: 76 µM (inactive)
SK-MEL-28
  GI50: > 100 µM (inactive)
SK-MEL-2
  GI50: > 100 µM (inactive)
SK-MEL-5
  GI50: 16.6 µM (inactive)
SK-OV-3
  GI50: > 100 µM (inactive)
SN12C
  GI50: > 100 µM (inactive)
SNB-19
  GI50: 70.1 µM (inactive)
SNB-75
  GI50: > 100 µM (inactive)
SR
  GI50: 19.2 µM (inactive)
SW-620
  GI50: > 100 µM (inactive)
T47D
  GI50: 19.5 µM (inactive)
TK-10
  GI50: > 100 µM (inactive)
U-251
  GI50: > 100 µM (inactive)
UACC-257
  GI50: > 100 µM (inactive)
UACC-62
  GI50: > 100 µM (inactive)
UO-31
  GI50: 78.7 µM (inactive)
